One assay relates to A549 cells. Put plainly: Ras cellular assay, growth of cells with K-Ras G12S mutation (CellTiter-Glo). The settings on record: Homo sapiens, cell growth, Example 9, G12S mutation, read-out: IC50 against A549 cells. It counts as cell-based. As to the method: For example, this assay can be also used to assess a selective growth inhibition of a mutant Ras protein relative to a wildtype, or relative to a different mutant Ras protein.
A549 (ATCC CCL-185) and LS123 (ATCC CCL-255) cell lines comprise a G12S mutation and can be used to assess Ras cellular signaling in vitro, e.g., in response to the compounds herein. A549 culture medium is prepared with RPMI-1640 and 10% heat-inactivated FBS. LS123 culture medium is prepared with RPMI-1640 and 10% heat-inactivated FBS. A CellTiter-Glo (CTG) luminescent based assay (Promega) is used to assess growth of the cells, as a measurement of the ability of the compounds herein to inhibit Ras signaling in the cells. The cells (e.g., 800 per well) are seeded in their respective culture medium in standard tissue culture-treated 384-well format plates (Falcon #08-772-116) or ultra-low attachment surface 384-well format plates (S-Bio #MS-9384WZ). The day after plating, cells are treated with a dilution series (e.g., a 10 point 3-fold dilution series) of the compounds herein (e.g., approximately 40 μL final volume per well). Cell viability can be monitored (e.g., approximately 6 days later) according to the manufacturer's recommended instructions, where the CellTiter-Glo reagent is added (e.g., approximately 10 μL), vigorously mixed, covered, and placed on a plate shaker (e.g., approximately for 20 min) to ensure sufficient cell lysis prior to assessment of luminescent signal. The IC50 values are determined using the four parameter fit. The resulting IC50 value is a measurement of the ability of the compounds herein to reduce cell growth of Ras-driven cells (e.g., tumor cell lines) in vitro and/or in vivo.

The target in a further assay is T1, K-Ras G12S (Homo sapiens, UniProt P01116, G12S).
T1 construct: made in house; host or cells: E. coli BL21 (DE3)
T1 sequence (P01116 1-188 isoform P01116-2 G12S): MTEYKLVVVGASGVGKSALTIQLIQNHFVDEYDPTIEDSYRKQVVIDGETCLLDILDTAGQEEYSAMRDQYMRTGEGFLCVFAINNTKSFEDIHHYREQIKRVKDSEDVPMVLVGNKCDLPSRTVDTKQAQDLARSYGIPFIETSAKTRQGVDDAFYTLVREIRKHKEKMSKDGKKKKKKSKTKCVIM
Put plainly: HTRF resonance energy transfer assay, K-Ras G12S / SOS1 interaction. It counts as biochemical. The following applies: HTRF assay of Example 5; read-out: IC50 against K-Ras G12S. The gist of the method: (§1)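 GST-tagged K-Ras (WT or mutant) bound to anti-GST-Eu donor was mixed with His-hSOS1 bound to anti-6His-XL665 acceptor in ~5 mM HEPES pH 7.4, 150 mM NaCl, 1 mM DTT, 0.05% BSA, 0.0025% Igepal. HTRF (ex 337, em 620/665 nm) was read after ~10 min or longer. IC50 came from the 665/620 ratio over duplicates from 10 μM to 0.01 μM.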

The target in the next assay is T2, K-Ras G12V (Homo sapiens, UniProt P01116, G12V).
T2 construct: made in house; host or cells: E. coli BL21 (DE3)
T2 sequence (P01116 1-188 isoform P01116-2 G12V): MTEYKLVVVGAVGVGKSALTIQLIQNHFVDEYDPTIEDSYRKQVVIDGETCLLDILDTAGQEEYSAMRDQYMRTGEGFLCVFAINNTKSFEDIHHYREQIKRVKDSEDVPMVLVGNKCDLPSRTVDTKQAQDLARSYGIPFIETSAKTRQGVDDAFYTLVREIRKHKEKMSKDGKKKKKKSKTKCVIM
The assay is described as follows: HTRF resonance energy transfer assay, K-Ras G12V / SOS1 interaction. The settings on record: HTRF assay of Example 5; read-out: IC50 against K-Ras G12V. In kind it is biochemical. The gist of the method:
as §1

A further assay concerns the target T3, K-Ras WT (Homo sapiens, UniProt P01116).
T3 construct: made in house; host or cells: E. coli BL21 (DE3)
Put plainly: HTRF resonance energy transfer assay, K-Ras WT / SOS1 interaction. The following applies: HTRF assay of Example 5; read-out: IC50 against K-Ras WT. It counts as biochemical. An outline of the steps: as §1

In a further assay the target is T4, K-Ras G12D (Homo sapiens, UniProt P01116, G12D).
T4 construct: made in house; host or cells: E. coli BL21 (DE3)
T4 sequence (P01116 1-188 isoform P01116-2 G12D): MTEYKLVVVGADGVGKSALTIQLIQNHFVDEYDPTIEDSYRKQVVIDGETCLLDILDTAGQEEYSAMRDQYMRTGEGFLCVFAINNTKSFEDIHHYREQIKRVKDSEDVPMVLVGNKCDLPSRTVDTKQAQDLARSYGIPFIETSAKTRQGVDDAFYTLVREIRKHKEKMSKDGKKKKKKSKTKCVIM
Put plainly: HTRF resonance energy transfer assay, K-Ras G12D / SOS1 interaction. It counts as biochemical. The settings on record: HTRF assay of Example 5; read-out: IC50 against K-Ras G12D. The gist of the method:
as §1

For the next assay, the system named is SW620 cells. The assay is described as follows: Ras cellular assay, growth of cells with K-Ras G12V mutation (CellTiter-Glo). It counts as cell-based. The settings on record: Homo sapiens, SW-620; cell growth, Example 9, G12V mutation; read-out: IC50 against SW620 cells. An outline of the steps: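 SW620 (K-Ras G12V) cells, e.g. 800/well in RPMI-1640 with 10% heat-inactivated FBS on standard or ultra-low attachment plates, were dosed the day after plating with e.g. a 10-point 3-fold series. Viability by CellTiter-Glo luminescence about 6 days later; IC50 from four-parameter fit.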

Molecules are shown by their SMILES.

T3 sequence (P01116 1-188 isoform P01116-2): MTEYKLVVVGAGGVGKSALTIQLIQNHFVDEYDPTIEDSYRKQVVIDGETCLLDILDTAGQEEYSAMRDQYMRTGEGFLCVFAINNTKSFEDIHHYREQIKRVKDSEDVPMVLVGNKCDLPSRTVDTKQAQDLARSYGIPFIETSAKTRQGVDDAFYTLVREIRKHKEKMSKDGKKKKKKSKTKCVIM

In the case of `C[C@H]1COc2c(Cl)c(-c3ccc(F)c4sc(N)c(C#N)c34)c(F)c3nc(OC[C@@]45CCCN4C[C@H](F)C5)nc(c23)N1CC(F)F` [Compound 658, 2-amino-4-((5S)-8-chloro-4-(2,2-difluoroethyl)-10-fluoro-2-(((2R,7aS)-2-fluorotetrahydro-1H-pyrrolizin-7a(5H)-yl)methoxy)-5-methyl-5,6-dihydro-4H-[1,4]oxazepino[5,6,7-de]quinazolin-9-yl)-7-fluorobenzo[b]thiophene-3-carbonitrile], the concentration for half-maximal inhibition (IC50) with A549 cells was below 5000 nM.
Take `N#Cc1c(N)sc2c(F)ccc(-c3c(Cl)c4c5c(nc(OC[C@@]67CCCN6C[C@H](F)C7)nc5c3F)N(C3CCCCC(O)C3)CCO4)c12` (stereo partly drawn) [Compound 825, 2-amino-4-(8-chloro-10-fluoro-2-(((2R,7aS)-2-fluorotetrahydro-1H-pyrrolizin-7a(5H)-yl)methoxy)-4-(3-hydroxycycloheptyl)-5,6-dihydro-4H-[1,4]oxazepino[5,6,7-de]quinazolin-9-yl)-7-fluorobenzo[b]thiophene-3-carbonitrile]: the half-inhibitory concentration (IC50) in the assay with A549 cells was below 5000 nM.
On the same count and under the same terms, for `N#Cc1c(N)sc2c(F)ccc(-c3c(Cl)c4c5c(nc(OC[C@@]67CCCN6C[C@H](F)C7)nc5c3F)N(CC(F)F)CCO4)c12` [Compound 827, 2-amino-4-(8-chloro-4-(2,2-difluoroethyl)-10-fluoro-2-(((2R,7aS)-2-fluorotetrahydro-1H-pyrrolizin-7a(5H)-yl)methoxy)-5,6-dihydro-4H-[1,4]oxazepino[5,6,7-de]quinazolin-9-yl)-7-fluorobenzo[b]thiophene-3-carbonitrile] the value was below 5000 nM.
`N#Cc1c(N)sc2c(F)ccc(-c3c(Cl)c4c5c(nc(OC[C@@]67CCCN6C[C@H](F)C7)nc5c3F)N(C3CCOC3)[C@@H](C(F)F)CO4)c12` (stereo partly drawn) [Compound 855, 2-amino-4-((5R)-8-chloro-5-(difluoromethyl)-10-fluoro-2-(((2R,7aS)-2-fluorotetrahydro-1H-pyrrolizin-7a(5H)-yl)methoxy)-4-(tetrahydrofuran-3-yl)-5,6-dihydro-4H-[1,4]oxazepino[5,6,7-de]quinazolin-9-yl)-7-fluorobenzo[b]thiophene-3-carbonitrile]: the 50% inhibitory concentration (IC50) was below 100 nM at K-Ras G12S, below 5000 nM with A549 cells and below 100 nM on K-Ras G12V.
Take `C[C@H](Oc1nc2c3c(c(Cl)c(-c4ccc(F)c5sc(N)c(C#N)c45)c(F)c3n1)OCCN2[C@@H]1CCN(C(=O)C(F)F)C1)[C@@H]1CCCN1C` [Compound 946, 2-amino-4-(8-chloro-4-((R)-1-(2,2-difluoroacetyl)pyrrolidin-3-yl)-10-fluoro-2-((S)-1-((S)-1-methylpyrrolidin-2-yl)ethoxy)-5,6-dihydro-4H-[1,4]oxazepino[5,6,7-de]quinazolin-9-yl)-7-fluorobenzo[b]thiophene-3-carbonitrile]: the IC50 at K-Ras WT was below 100 nM; at K-Ras G12D it was below 100 nM; on K-Ras G12S, below 100 nM; in the assay on A549 cells, below 5000 nM; at K-Ras G12V, below 100 nM.
Regarding `N#Cc1c(N)sc2c(F)ccc(-c3c(Cl)c4c5c(nc(OC[C@@]67CCCN6C[C@H](F)C7)nc5c3F)N(C3C5CNC3C5)CCO4)c12` (stereo partly drawn) [Compound 991, 4-(4-(2-azabicyclo[2.1.1]hexan-5-yl)-8-chloro-10-fluoro-2-(((2R,7aS)-2-fluorotetrahydro-1H-pyrrolizin-7a(5H)-yl)methoxy)-5,6-dihydro-4H-[1,4]oxazepino[5,6,7-de]quinazolin-9-yl)-2-amino-7-fluorobenzo[b]thiophene-3-carbonitrile], the IC50 is below 100 nM at K-Ras WT; below 100 nM at K-Ras G12D; below 100 nM at K-Ras G12S; below 5000 nM in the assay on A549 cells; below 100 nM on K-Ras G12V.
For `N#Cc1c(N)sc2c(F)ccc(-c3c(Cl)c4c5c(nc(OC[C@@]67CCCN6C[C@H](F)C7)nc5c3F)NCCO4)c12` [Compound 1087, 2-amino-4-(8-chloro-10-fluoro-2-(((2R,7aS)-2-fluorotetrahydro-1H-pyrrolizin-7a(5H)-yl)methoxy)-5,6-dihydro-4H-[1,4]oxazepino[5,6,7-de]quinazolin-9-yl)-7-fluorobenzo[b]thiophene-3-carbonitrile], the IC50 at K-Ras WT was below 100 nM; at K-Ras G12D it was below 100 nM; on K-Ras G12S, below 100 nM; with A549 cells, below 5000 nM; on K-Ras G12V it was below 100 nM.
Take `N#Cc1c(N)sc2c(F)ccc(-c3c(Cl)c4c5c(nc(OC[C@@]67CCCN6C[C@H](F)C7)nc5c3F)N(C3CC35CCN(C=O)C5)CCO4)c12` (stereo partly drawn) [Compound 1091, 2-amino-4-(8-chloro-10-fluoro-2-(((2R,7aS)-2-fluorotetrahydro-1H-pyrrolizin-7a(5H)-yl)methoxy)-4-(5-formyl-5-azaspiro[2.4]heptan-1-yl)-5,6-dihydro-4H-[1,4]oxazepino[5,6,7-de]quinazolin-9-yl)-7-fluorobenzo[b]thiophene-3-carbonitrile]: the half-maximal inhibitory concentration (IC50) at K-Ras WT is below 100 nM; on K-Ras G12D it was below 100 nM; at K-Ras G12S, below 100 nM; in the assay on A549 cells it was below 5000 nM; on K-Ras G12V it was below 100 nM.
With `N#Cc1c(N)sc2c(F)ccc(-c3c(Cl)c4c5c(nc(OC[C@@]67CCCN6C[C@H](F)C7)nc5c3F)N(C3COC5(CNC5)C3)CCO4)c12` (stereo partly drawn) [Compound 1093, 2-amino-4-(8-chloro-10-fluoro-2-(((2R,7aS)-2-fluorotetrahydro-1H-pyrrolizin-7a(5H)-yl)methoxy)-4-(5-oxa-2-azaspiro[3.4]octan-7-yl)-5,6-dihydro-4H-[1,4]oxazepino[5,6,7-de]quinazolin-9-yl)-7-fluorobenzo[b]thiophene-3-carbonitrile], the IC50 on K-Ras WT was below 100 nM; on K-Ras G12D it was below 100 nM; on K-Ras G12S, below 100 nM; in the assay on A549 cells it was below 5000 nM; on K-Ras G12V it was below 100 nM.
`N#Cc1c(N)sc2c(F)ccc(-c3c(Cl)c4c5c(nc(OC[C@@]67CCCN6C[C@H](F)C7)nc5c3F)N(C3CC5(CCNC5)C3)CCO4)c12` (stereo partly drawn) [Compound 1112, 2-amino-4-(8-chloro-10-fluoro-2-(((2R,7aS)-2-fluorotetrahydro-1H-pyrrolizin-7a(5H)-yl)methoxy)-4-(6-azaspiro[3.4]octan-2-yl)-5,6-dihydro-4H-[1,4]oxazepino[5,6,7-de]quinazolin-9-yl)-7-fluorobenzo[b]thiophene-3-carbonitrile]: the half-inhibitory concentration (IC50) was below 100 nM on K-Ras WT; below 100 nM at K-Ras G12D; below 100 nM on K-Ras G12S; below 5000 nM in the assay with A549 cells; below 100 nM at K-Ras G12V.
Consider `CN1c2nc(OC[C@@]34CCCN3C[C@H](F)C4)nc3c(F)c(-c4ccc(F)c5sc(N)c(C#N)c45)c(Cl)c(c23)OCC[C@H]1C1CC1` [Compound 1209, 2-amino-4-((5S)-9-chloro-5-cyclopropyl-11-fluoro-2-(((2R,7aS)-2-fluorotetrahydro-1H-pyrrolizin-7a(5H)-yl)methoxy)-4-methyl-4,5,6,7-tetrahydro-[1,5]oxazocino[4,3,2-de]quinazolin-10-yl)-7-fluorobenzo[b]thiophene-3-carbonitrile], for which the half-inhibitory concentration (IC50) at K-Ras WT was below 100 nM; in the assay with SW620 cells, below 5000 nM; at K-Ras G12D, below 100 nM; on K-Ras G12S, below 100 nM; on K-Ras G12V, below 100 nM.
Consider `CN1c2nc(OC[C@@]34CCCN3C[C@H](F)C4)nc3c(F)c(-c4ccc(F)c5sc(N)c(C#N)c45)c(Cl)c(c23)OCCC1CO` (stereo partly drawn) [Compound 1217, 2-amino-4-(9-chloro-11-fluoro-2-(((2R,7aS)-2-fluorotetrahydro-1H-pyrrolizin-7a(5H)-yl)methoxy)-5-(hydroxymethyl)-4-methyl-4,5,6,7-tetrahydro-[1,5]oxazocino[4,3,2-de]quinazolin-10-yl)-7-fluorobenzo[b]thiophene-3-carbonitrile], for which the 50% inhibitory concentration (IC50) on K-Ras WT was below 100 nM; with SW620 cells, below 5000 nM; on K-Ras G12D, below 100 nM; on K-Ras G12S, below 100 nM; at K-Ras G12V, below 100 nM.

The record behind these values is patent publication US12209102B2, “Heterocyclic compounds and uses thereof” (Kumquat Biosciences Inc., priority 2022, dated 2025).
